The values below come from ChEMBL document CHEMBL1152149 (Bioorg Med Chem Lett, 2008).

In the test the test system is Influenza A virus. Put plainly: microbe, parasite or virus in culture. Conditions: MDCK.

Where a name gives a salt, the structure may show the parent alone.

Take `CC1(N)C2CC3CC(C2)CC1C3` (stereo unspecified): the EC50 (as a rule, the concentration needed to bring the measured effect to its halfway point) was < 2 µM.

Regarding `CCCC1(N)C2CC3CC(C2)CC1C3` (stereo unspecified), the EC50 is < 1.7 µM.

In the case of `C1CNC2(C1)C1CC3CC(C1)CC2C3` (stereo unspecified), the EC50 is 1.8 µM.

`CC1(O)C2CC3CC(C2)CC1C3` (stereo unspecified): the EC50 was 10.8 µM.

`CCC1(N)C2CC3CC(C2)CC1C3` (stereo unspecified): the EC50 is < 1.9 µM.

As for `NC12CC3CC(CC(C3)C1)C2` [AMANTADINE HYDROCHLORIDE], the EC50 is < 0.9 µM.
